Each structure is given as a SMILES string. pKd: −log10 of the molar value.

The target of the test is PDEδ (Homo sapiens (Human), UniProt O43924). Nature of the test: Fluorescence polarization competition binding assay: displacement titration of labeled Atorvastatin probe for KD. The note with it: fluorescence polarization assay; activity classes; read-out: KD. How it is done:
Example D.2: Displacement Titrations of Labeled Atorvastatin-Probe for the Determination of KD Values
Displacement Titrations of Labeled Atorvastatin-Probe for the Determination of KD Values:
The purification was followed by size exclusion gel filtration on a Superdex 75 S26/60 column using buffer A (25 mM Tris-HCl, pH 7.5, 150 mM NaCl and 3 mM DTE).
(Fluorescence polarisation rises when a labelled molecule tumbles more slowly, as on binding a larger partner.)

In general, pKd refers to −log10 of the Kd, conventionally taken in molar units. As to `O=S(=O)(NCC1CCNCC1)c1ccc(S(=O)(=O)N(Cc2ccc(Cl)cc2)C2CCCC2)cc1` [Compound 45, N1-(4-chlorobenzyl)-N1-cyclopentyl-N4-(piperidin-4-ylmethyl)benzene-1,4-disulfonamide], the pKd is 7.52 to 9.00. As for `CCN(CC)S(=O)(=O)c1ccc(S(=O)(=O)N(Cc2ccccn2)Cc2ccco2)cc1` [Compound 46, N1,N1-diethyl-N4-(furan-2-ylmethyl)-N4-(pyridin-2-ylmethyl)benzene-1,4-disulfonamide], the negative logarithm of the Kd (pKd) was 6.00 to 7.00. The value for `CCN(Cc1ccccc1)S(=O)(=O)c1ccc(S(=O)(=O)N(Cc2ccc(F)cc2)Cc2ccco2)cc1` [Compound 47, N1-benzyl-N1-ethyl-N4-(4-fluorobenzyl)-N4-(furan-2-ylmethyl)benzene-1,4-disulfonamide] was 7.00 to 7.52. The figure for `CCN(Cc1ccccc1)S(=O)(=O)c1ccc(S(=O)(=O)N(Cc2ccccc2)Cc2ccccn2)cc1` [Compound 48, N1,N4-dibenzyl-N1-ethyl-N4-(pyridin-2-ylmethyl)benzene-1,4-disulfonamide] is 7.52 to 9.00.

Take `CCN(Cc1ccccc1)S(=O)(=O)c1ccc(S(=O)(=O)N(Cc2ccccc2)Cc2ccccc2F)cc1` [Compound 49, N1,N4-dibenzyl-N1-ethyl-N4-(2-fluorobenzyl)benzene-1,4-disulfonamide]: the pKd was 7.52 to 9.00. The value for `CC1CCCN(S(=O)(=O)c2ccc(S(=O)(=O)N(Cc3ccccc3Cl)CC3CCCO3)cc2)C1` (centres unmarked) [Compound 50, N-(2-chlorobenzyl)-4-((3-methylpiperidin-1-yl)sulfonyl)-N-((tetrahydrofuran-2-yl)methyl)benzenesulfonamide] was 7.00 to 7.52; that for `COc1cccc(CN(C2CC2)S(=O)(=O)c2ccc(S(=O)(=O)NCc3ccccc3)cc2)c1OC` [Compound 51, N1-benzyl-N4-cyclopropyl-N4-(2,3-dimethoxybenzyl)benzene-1,4-disulfonamide] was 6.00 to 7.00.

On to `O=S(=O)(c1ccc(S(=O)(=O)N(Cc2ccc(Cl)cc2)Cc2ccco2)cc1)N1CCCCCC1` [Compound 52, 4-(azepan-1-ylsulfonyl)-N-(4-chlorobenzyl)-N-(furan-2-ylmethyl)benzenesulfonamide], for which the pKd is 6.00 to 7.00.

As to `O=S(=O)(NC1CCCC1)c1ccc(S(=O)(=O)N(Cc2ccc(F)cc2)Cc2ccccc2F)cc1` [Compound 53, N1-cyclopentyl-N4-(2-fluorobenzyl)-N4-(4-fluorobenzyl)benzene-1,4-disulfonamide], the negative-log Kd (pKd) is 6.00 to 7.00.

On to `O=S(=O)(NC1CCCCC1)c1ccc(S(=O)(=O)N(Cc2ccccc2)Cc2ccco2)cc1` [Compound 54, N1-benzyl-N4-cyclohexyl-N1-(furan-2-ylmethyl)benzene-1,4-disulfonamide], for which the pKd is 6.00 to 7.00. As for `CCN(Cc1ccccc1)S(=O)(=O)c1ccc(S(=O)(=O)N(Cc2ccccc2F)CC2CCCO2)cc1` (centres unmarked) [Compound 55, N1-benzyl-N1-ethyl-N4-(2-fluorobenzyl)-N4-((tetrahydrofuran-2-yl)methyl)benzene-1,4-disulfonamide], the negative logarithm of the Kd (pKd) is 7.52 to 9.00. Turning to `CC(C)c1ccc(CN(CC2CCCO2)S(=O)(=O)c2ccc(S(=O)(=O)N(C)C3CCCCC3)cc2)cc1` (centres unmarked) [Compound 56, N1-cyclohexyl-N4-(4-isopropylbenzyl)-N1-methyl-N4-((tetrahydrofuran-2-yl)methyl)benzene-1,4-disulfonamide], the pKd was 7.52 to 9.00.

As for `COc1ccc(CN(C2CCCCC2C)S(=O)(=O)c2ccc(S(=O)(=O)N(C)C3CCCCC3)cc2)cc1OC` (centres unmarked) [Compound 57, N1-cyclohexyl-N4-(3,4-dimethoxybenzyl)-N1-methyl-N4-(2-methylcyclohexyl)benzene-1,4-disulfonamide], the pKd is 6.00 to 7.00. Turning to `CC1CCCN(S(=O)(=O)c2ccc(S(=O)(=O)N(Cc3ccccc3F)C3CCCC3)cc2)C1` (centres unmarked) [Compound 58, N-cyclopentyl-N-(2-fluorobenzyl)-4-((3-methylpiperidin-1-yl)sulfonyl)benzenesulfonamide], the negative-log Kd (pKd) is 7.00 to 7.52. Take `CC(C)c1ccc(CN(Cc2ccco2)S(=O)(=O)c2ccc(S(=O)(=O)N(C)Cc3ccccc3)cc2)cc1` [Compound 59, N1-benzyl-N4-(furan-2-ylmethyl)-N4-(4-isopropylbenzyl)-N1-methylbenzene-1,4-disulfonamide]: the negative-log Kd (pKd) is 6.00 to 7.00. As for `COc1cc(CN(C2CCCCC2C)S(=O)(=O)c2ccc(S(=O)(=O)NC3CCCC3)cc2)cc(OC)c1OC` (centres unmarked) [Compound 60, N1-cyclopentyl-N4-(2-methylcyclohexyl)-N4-(3,4,5-trimethoxybenzyl)benzene-1,4-disulfonamide], the pKd was 6.00 to 7.00. Consider `CN(Cc1ccccc1)S(=O)(=O)c1ccc(S(=O)(=O)N(Cc2ccc(F)cc2)C2CCCCC2)cc1` [Compound 61, N1-benzyl-N4-cyclohexyl-N4-(4-fluorobenzyl)-N1-methylbenzene-1,4-disulfonamide], for which the negative-log Kd (pKd) was 7.52 to 9.00. As to `O=S(=O)(NCC1CCCO1)c1ccc(S(=O)(=O)N(Cc2ccccc2)Cc2ccc(Cl)cc2)cc1` (centres unmarked) [Compound 62, N1-benzyl-N1-(4-chlorobenzyl)-N4-((tetrahydrofuran-2-yl)methyl)benzene-1,4-disulfonamide], the negative-log Kd (pKd) is 6.00 to 7.00. `CC(C)c1ccc(CN(CC2CCCO2)S(=O)(=O)c2ccc(S(=O)(=O)NCc3ccccc3)cc2)cc1` (centres unmarked) [Compound 63, N1-benzyl-N4-(4-isopropylbenzyl)-N4-((tetrahydrofuran-2-yl)methyl)benzene-1,4-disulfonamide]: the pKd is 7.52 to 9.00.

Turning to `COc1cc(CN(C2CCCCC2)S(=O)(=O)c2ccc(S(=O)(=O)N(C)C3CCCCC3)cc2)cc(OC)c1OC` [Compound 64, N1,N4-dicyclohexyl-N1-methyl-N4-(3,4,5-trimethoxybenzyl)benzene-1,4-disulfonamide], the pKd was 6.00 to 7.00. With `O=S(=O)(NC1CCCCC1)c1ccc(S(=O)(=O)N(Cc2ccccc2)CC2CCCO2)cc1` (centres unmarked) [Compound 65, N1-benzyl-N4-cyclohexyl-N1-((tetrahydrofuran-2-yl)methyl)benzene-1,4-disulfonamide], the negative-log Kd (pKd) is 7.52 to 9.00. The figure for `O=S(=O)(NCc1ccccc1)c1ccc(S(=O)(=O)N(Cc2ccco2)Cc2ccccc2F)cc1` [Compound 66, N1-benzyl-N4-(2-fluorobenzyl)-N4-(furan-2-ylmethyl)benzene-1,4-disulfonamide] is under 6.00; for `COc1cccc(CN(CC2CCCO2)S(=O)(=O)c2ccc(S(=O)(=O)N3CCCC3)cc2)c1` (centres unmarked) [Compound 67, N-(3-methoxybenzyl)-4-(pyrrolidin-1-ylsulfonyl)-N-((tetrahydrofuran-2-yl)methyl)benzenesulfonamide] it is 6.00 to 7.00; for `CCN(CC)S(=O)(=O)c1ccc(S(=O)(=O)N(Cc2ccc(OC)c(OC)c2)C2CCCCC2C)cc1` (centres unmarked) [Compound 68, N1-(3,4-dimethoxybenzyl)-N4,N4-diethyl-N1-(2-methylcyclohexyl)benzene-1,4-disulfonamide] it is 7.52 to 9.00.

In the case of `CCOc1ccc(CN(C2CC2)S(=O)(=O)c2ccc(S(=O)(=O)N(C)C)cc2)cc1` [Compound 69, N1-cyclopropyl-N1-(4-ethoxybenzyl)-N4,N4-dimethylbenzene-1,4-disulfonamide], the pKd is 6.00 to 7.00. The figure for `COc1ccc(CN(C2CCCCC2C)S(=O)(=O)c2ccc(S(=O)(=O)NCc3ccccc3)cc2)cc1OC` (centres unmarked) [Compound 70, N1-benzyl-N4-(3,4-dimethoxybenzyl)-N4-(2-methylcyclohexyl)benzene-1,4-disulfonamide] is 6.00 to 7.00.

(Values after US10913710B2, “Benzene disulfonamide for the treatment of cancer” (priority 2017, dated 2021).)
